# In patent US7625879B2 (priority 1998, dated 2009):
# Counter-ions that a name gives are not always drawn.
# Tests used:
# Tγ9δ2 lymphocytes [1] = experiment: Stimulation of the proliferation of Tγ9δ2 lymphocytes in a culture; format: cell-based, human; settings: effective dose at 50% of the maximum polyclonal lymphocyte amplification effect; 8 days culture with hIL-2; read-out: ED 50% (the source's name)
# Method: 20 microliters of the aqueous solution of the compound according to the invention adjusted to the final concentration specified in the test are added to an in vitro culture of 10^6 total T lymphocytes in 1 ml, separated from the blood of a healthy adult human donor and initially containing 1-5% of Tγ9δ2 lymphocytes, in an adequate culture medium (RPMI 1640+10% of inactivated human serum and 50 U/ml of human interleukin-2 (hIL-2)). After culturing for 4 days, 50 U of dIL-2 are added per milliliter of culture medium. After 8 days, the cells are counted, collected, washed with phosphate buffer, and the Tγ9δ2 type cells are detected in the culture by labeling with conventional commercial reagents (fluorescein-labeled monoclonal antibodies) and the proportion thereof determined by flux cytometry analysis. The parameter measured is either the change in the proportion of or the increase in the number of Tγ9δ2 cells in cultures in the presence of the compound according to the invention in comparison with cultures not containing a compound according to the invention.
# [2] = Pyrogenicity in rabbits (ISO-10993-11, USP XXIII); format: in vivo
# Method: This test is performed in accordance with a protocol specified by standards ISO-10993-11 (1993) and USP XXIII. […] Temperature is taken every 30 minutes for 3 hours starting 30 minutes after the injection.
# [3] = Toxicity of BrHPP (sodium salt) in mice, intravenous injection; format: in vivo
# Method: Eight 30 g mice received an intravenous injection (caudal vein) of 300 μl of PBS buffer containing 1 mg of BrHPP (sodium salt). […] Toxicity is thus less than 12.5% for a dose of 33.4 mg of BrHPP (Na^+) per kilogram of animal body weight.
# Tγ9δ2 lymphocytes [4] = experiment: In vivo bioactivity in the macaque: Tγ9δ2 lymphocytes in the blood; parameters: species or system Macaca fascicularis; settings: for % of Tγ9δ2 lymphocytes in the blood in vivo (7 days after injection): animals injected BrHPP only
# Method: (§1) These tests are performed on monkeys of the species Macaca fascicularis (males weight 3-4 kg) anaesthetized with 15 mg/kg Zoletil (zolazepam)®/0.01 mg/kg atropine. The batches of BrHPP (in NA^+ form) are subjected to prior purity testing (>99%), quantified and have been tested in accordance with the pyrogenicity tests of Example 12. The animals are injected by rapid intravenous injection (2-5 minutes into the saphenous vein) with 0.1 mg/kg of BrHPP (i.e. 0.3-0.4 mg per animal) diluted in 10 ml of Ringer lactate. Each animal also receives a subcutaneous injection of 90,000 units of interleukin-2 (IL-2). These injections are performed once daily for four days. Control animals receive only the subcutaneous injection of IL-2 once daily for four days.
# (§2) The proportion of Tγ9δ2 lymphocytes in total lymphocytes in the various animals is compared in the following three situations: • in the animal's bloodstream, • in a culture of total lymphocytes taken from the animal receiving only BrHPP, • in a culture of total lymphocytes talken from the animal receiving BrHPP+IL-2.
# Tγ9δ2 lymphocytes [5] = experiment: Reactivity ex vivo of Tγ9δ2 lymphocytes from injected macaques in culture; format: cell-based, Macaca fascicularis
# Method: as §1, §2
# Tγ9δ2 lymphocyte clone = experiment: Stimulation of induced cytotoxicity of a Tγ9δ2 lymphocyte clone
# human Tγ9δ2 lymphocytes = settings: cited from earlier work
# [6] = animals injected BrHPP only, twice (1 injection + 1 booster)
compound,measurement,setting,value
"CC(O)(CBr)CCOP(=O)(O)OP(=O)(O)OP(=O)(O)O (stereo not shown) [BrHPPP, 3-(bromomethyl)-3-butanol-1-yl triphosphate]",EC50,Tγ9δ2 lymphocytes [1],120 nM
"CC(O)(CBr)CCOP(=O)(O)OP(=O)(O)O (stereo not shown) [BrHPP (sodium salt), 3-(bromomethyl)-3-butanol-1-yl diphosphate]",side-effect on injection,"[2]; 400 μg/ml solution, i.v.",muscle tremors
same,reaction to the injection,"[2]; solution diluted 1:40 to 10 μg/ml, one rabbit, in 19 minutes",no reaction to the injection
same,febrile reaction (increase in temperature greater than 0.5° C.),"[2]; three rabbits, i.v. 400 μg/ml, 10 ml per kilogram, 3 hours",Only one rabbit exhibited an increase in temperature of greater than 0.5 °C
same,Toxicity,"[3]; dose of 33.4 mg per kilogram of animal body weight, i.v.",less than 12.5%
same,signs of shock or pyrogenicity,"[3]; eight 30 g mice, i.v. caudal vein, 1 mg in 300 μl PBS",No sign of shock or pyrogenicity
same,variation in the weight of the mice,"[3]; i.v. 1 mg per 30 g mouse, during the study",no significant variation
same,mice still alive after 30 days,"[3]; of eight mice, i.v. 1 mg per 30 g mouse",8 mice
3-(bromomethyl)-3-butanol-1-yl diphosphate [BrHPP],% of Tγ9δ2 lymphocytes in the blood in vivo (7 days after injection),"Tγ9δ2 lymphocytes [4]; i.v. 0.1 mg/kg, Na+ form",~1%
same,% of Tγ9δ2 lymphocytes in the blood in vivo (7 days after injection),Tγ9δ2 lymphocytes [4]; twice (1 injection + 1 booster),~1%
same,effect on the monkey's Tγ9δ2 lymphocytes in vivo,Tγ9δ2 lymphocytes [4]; intravenous injection of BrHPP in the presence of subcutaneous IL-2,preactivates these same cells and brings about the growth thereof in vivo
same,effect on the monkey's Tγ9δ2 lymphocytes in vivo,Tγ9δ2 lymphocytes [4]; single or repeated intravenous injection of BrHPP alone,"preactivates the monkey's Tγ9δ2 lymphocytes, but does not stimulate the growth thereof in the animal"
same,"Reactivity ex vivo of Tγ9δ2 lymphocytes (% after 10 days' culturing in vitro), Amplification by 40 nM BrHPP",Tγ9δ2 lymphocytes [5]; animals injected BrHPP + IL-2,10%
same,"Reactivity ex vivo of Tγ9δ2 lymphocytes (% after 10 days' culturing in vitro), Amplification by 40 nM BrHPP + IL-2",Tγ9δ2 lymphocytes [5]; animals injected BrHPP + IL-2,50.0%
same,"Reactivity ex vivo of Tγ9δ2 lymphocytes (% after 10 days' culturing in vitro), Amplification by 40 nM BrHPP",Tγ9δ2 lymphocytes [5]; animals injected BrHPP only,1%
same,"Reactivity ex vivo of Tγ9δ2 lymphocytes (% after 10 days' culturing in vitro), Amplification by 40 nM BrHPP",Tγ9δ2 lymphocytes [5]; [6],1%
same,"Reactivity ex vivo of Tγ9δ2 lymphocytes (% after 10 days' culturing in vitro), Amplification by 40 nM BrHPP + IL-2",Tγ9δ2 lymphocytes [5]; [6],40.2%
same,EC50,Tγ9δ2 lymphocytes [1],10 nM
3-(chloromethyl)-3-butanol-1-yl diphosphate [CIHPP],EC50,Tγ9δ2 lymphocytes [1],100 nM
"CC(O)(CI)CCOP(=O)(O)OP(=O)(O)OP(=O)(O)O (stereo not shown) [IHPPP, 3-(iodomethyl)-3-butanol-1-yl triphosphate]",EC50,Tγ9δ2 lymphocytes [1],70 nM
"α,γ di-[3-(iodomethyl)-3-butanol-1-yl] triphosphate [di-IHTP]",EC50,Tγ9δ2 lymphocytes [1],7000 nM
3-(iodomethyl)-3-butanol-1-yl diphosphate [IHPP],EC50,Tγ9δ2 lymphocytes [1],3 nM
"CC(O)(CBr)CCOP(=O)(O)OP(=O)(O)OP(=O)(O)OCCC(C)(O)CBr (stereo not drawn) [di-BrHTP, α,γ di-[3-(bromomethyl)-3-butanol-1-yl] triphosphate]",EC50,Tγ9δ2 lymphocytes [1],3000 nM
isopentenyl pyrophosphate [IPP],concentration at which active in induced cytotoxicity test,"Tγ9δ2 lymphocyte clone; Tγ9δ2 lymphocyte clone, decreasing concentrations, FIG. 2",~3000 nM
same,active concentration relative to the compounds according to the invention,Tγ9δ2 lymphocyte clone; induced cytotoxicity test,~300 times higher
same,minimum active concentration (no activity demonstrated below),"human Tγ9δ2 lymphocytes; best results obtained, prior art compounds",≥ 3 µM
same,minimum active concentration relative to natural phosphoantigens,human Tγ9δ2 lymphocytes,~1000 times higher
same,EC50,Tγ9δ2 lymphocytes [1],3000 nM
